Data as given in patent publication US8389481B2, “Glutamate-enhanced cell-penetrating peptides and methods of using same” (University of Medicine and Dentistry of New Jersey, priority 2008, dated 2013).
Several values for one entry are separate records, joined by “and”; a condition that tells them apart may be missing. Identical values can stand only once. Primed or numbered codes have the meaning given here. Ends that are not written are not given here. Peptide text beside a SMILES is read from it. * marks the point of attachment. {P353} = cell-penetrating peptide 353 (Glu-Oct6) attached at PNA N-terminus; {Lys-FITC} = C-terminal lysine carrying fluorescein (FITC); 5FAM = O=C1OC2(c3ccc(O)cc3Oc3cc(O)ccc32)c2ccc(C(=O)*)cc21; FITC′ = not defined here

Key:
Type in all cases: cell-based
DU-145 cells [1] = assay: Peptide uptake by live cells, flow cytometry (geometric MFI); conditions: for uptake of carboxydansyl peptide on coincubation with peptide 353: 300 nM each, 1 hr (FIG. 1D); for average geometric MFI: 300 nM peptides, 4° C., 4 hours (FIG. 2); for geometric MFI compared among the peptides (FIG. 1A): 500 nM peptides, 4 hrs incubation; for effect of NaN3 on uptake: 0.1 or 1% NaN3, 300 nM peptide
Protocol: (§1) Uptake of peptides by live cells was compared by flow cytometry, using the exclusion dye 7-amino actinomycin D (7-AAD) to exclude dead cells from analyses.
(§2) Cells: DU-145 and LNCaP cells were the gift of Dr. James Turkson (University of South Florida, Tampa, Fla.). DU-145 cells were grown in DMEM/Ham's F12 (Invitrogen, Carlsbad, Calif.) plus 10% newborn bovine serum (Hyclone, Logan, Utah). LNCaP cells were maintained in RPMI-1640 (Invitrogen) plus fetal bovine serum (Hyclone). Cell viabilities were determined using fluorescein diacetate (Sigma Chemical Co., St. Louis, Mo.) and a Universal RIII fluorescence microscope (Zeiss, Jena, Germany).
(§3) Uptake and Fluorescence Quantification Studies: Peptides were added to subconfluent cultures of cells at times, temperatures, and concentrations indicated in experiments. Concentrations ranging from 0 to 3000 nM were assayed. Cells were analyzed in the presence of […] 7-AAD (eBioscience, San Digeo Calif.) to gate on live events. Fluorescence was quantified, after cells were harvested, using a FACScan flow cytometer. At least 10,000 events were acquired using CellQuest Pro software and an Apple Macintosh G4 dual coprocessor computer running OS X 10.3.9. Fluorescence detectors on the instrument were standardized prior to each acquisition run, so that fluorescence intensities from different days could be compared. Because the FACScan employs logarithmic amplifiers on the fluorescence detectors, the more accurate parameter with which to compare fluorescence intensities for different samples is the geometric mean fluorescence intensity (geometric MFI). In some studies, fixed cells (4% paraformaldehyde/DPBS) were analyzed on an Amnis ImageStream 200 imaging cytometer using IDEAS 3.0 software.

LNCaP cells [2] = assay: as above; conditions: 3 μM peptide, 1 hr (FIG. 1B)
Protocol: as §1, §2, §3

DU-145 cells [3] = assay: Live cell imaging of nuclear localization (epifluorescence microscopy); conditions: 500 nM, 24 hrs incubation
Protocol: (§4) Since flow cytometry only gives data regarding total shifts in fluorescence of a population, imaging flow cytometry and live imaging microscopy studies were performed to determine if the NLS augmented nuclear accumulation of the peptides. Imaging flow cytometry was chosen to provide data on intracellular distribution of FITC-labeled peptides. Inverted epifluorescence microscopy was chosen to eliminate inadvertant artifacts that may arise from fixation, such as nuclear translocation. For these studies, the cell-permeable fluorochrome DRAQ5 was used because it readily enters and stains nuclei of viable cells. […] It was not retained in the plasma membrane (FIG. 3A). […] The translocation of peptides to nuclei was complete in the sense that FITC and DRAQ5 fluorescence colocalized in all viable cells, although cytoplasmic fluorescence was visible as well. The FITC distribution was somewhat punctuate in the cytoplasmic portion of cells, leading us to conclude that the peptide may be accumulating within endosomes. […]
(§5) Live Cell Imaging Studies: A Zeiss Axiovert 200 inverted phase-contrast microscope outfitted with epifluorescence was used for live imaging studies. […] Images were acquired and analyzed using Zeiss Axiovision software.

LNCaP cells [4] = assay: as above; conditions: 500 nM, 24 hrs incubation
Protocol: as §4, §5

DU-145 cells [5] = assay: Cell death determined by staining with 7-AAD; conditions: concentrations higher than 300 nM
Protocol: (§6) In order to determine if uptake of peptide 353 was receptor-mediated or receptor-specific in any way, Glu residues were substituted by Phe residues (peptide 361) or Asn residues (peptide 362). The resulting peptides were incubated at 0 to 3000 nM with DU-145 cells for 1 hr. Cells were then harvested and processed for analysis by flow cytometry. […] At 3000 nM, peptides 361 and 362 induced cell death in more than 70% of the cells (determined by staining with 7-AAD); in the case of peptide 361, over 95% of DU-145 cells were positive for 7-AAD; therefore only geometric MFI for concentrations up to 1000 nM are shown in the figure. […] The higher MFI observed for peptide 365 is likely due to the hydrophobicity of both the Phe residues and the dansyl fluorochrome. It was concluded from these experiments that peptide 353 bound to a cell-surface receptor through the glutamate residues.
as §3

[6] = Cell death determined by staining with 7-AAD; conditions: human, DU-145 cells; 3000 nM, 1 hr (FIG. 1C)
Protocol: as §6, §3

DU-145 cells [7] = assay: Imaging flow cytometry, intracellular distribution of FITC-labeled peptides; conditions: 250 nM, 4 hours
Protocol: (§7) FIG. 3A: DU-145 and LN-CaP cells were incubated with 250 nM peptides 351 or 353 for 4 hours, counterstained with 5 μM DRAQ 5, then fixed in paraformaldehyde and analyzed by imaging flow cytometry on an Amnis Imaging Cytometer. IDEAS software (Amnis) was used to generate and colorize the images. […] FIG. 3B: Live cell imaging of peptide 353 by DU-145 cells. 500 nM peptide 353 was incubated with DU-145 cells overnight (necessary for imaging purposes). Cells were washed with phenol red-free buffer, counter-stained with DRAQ5 at 10 μM, then examined under a Zeiss Axiovert 200 inverted phase contrast microscope with epifluorescence. The merged image confirms the presence of peptide 353 in nuclei. FIGS. 3C and D: DU-145 cells incubated with peptides 350 and 356, as described for FIG. 3B. Note the absence of FITC fluorescence in nuclei.
as §4
as §3, with “Concentrations ranging from 0 to 3000 nM were assayed.” left out, “At least 10,000 events were acquired using CellQuest Pro software and an Apple Macintosh G4 dual coprocessor computer running OS X 10.3.9.” left out

LNCaP cells [8] = assay: as above; conditions: 250 nM, 4 hours
Protocol: as §7, §4
as §3, with “Concentrations ranging from 0 to 3000 nM were assayed.” left out, “At least 10,000 events were acquired using CellQuest Pro software and an Apple Macintosh G4 dual coprocessor computer running OS X 10.3.9.” left out

[9] = 300 nM peptide, 4 hr, 37° C., NaN3 0%
[10] = 300 nM peptide, 4 hr, 37° C., NaN3 0.1%
[11] = 300 nM peptide, 4 hr, 37° C., NaN3 1.0%
[12] = 300 nM peptide, 4 hr, NaN3 0.1%
[13] = up to 300 nM, 1 hr, 37 ° C. (FIG. 1C), from approximately 40 without peptide
[14] = 300 nM peptide, 4 hr, NaN3 1.0%

Row | Compound | Geometric MFI (DU-145 cells [1]; [9]) | Geometric MFI (DU-145 cells [1]; [10]) | Geometric MFI (DU-145 cells [1]; [11]) | % Inhibition (DU-145 cells [1]; 300 nM peptide, 4 hr, NaN3 0%) | % Inhibition (DU-145 cells [1]; [12]) | average geometric MFI (DU-145 cells [1]) | geometric MFI compared among the peptides (FIG. 1A) (DU-145 cells [1]) | cell death (DU-145 cells [5]) | % Inhibition (DU-145 cells [1]; [14]) | effect of NaN3 on uptake (DU-145 cells [1]; 4 hr, 37° C.) | further results
1 | FFFAAGRKRKKRT-K-dansyl (FFFAAGRKRKKRTK-dansyl) [Peptide 365] |  |  |  |  |  |  |  |  |  |  | uptake of carboxydansyl peptide on coincubation with peptide 353 (DU-145 cells [1]): without concomitant uptake
2 | EEEAAGRKRKKRT-FITC (EEEAAGRKRKKRT-{FITC′}) [Peptide 353, glutamate peptide linked by alanine linker to Oct6 NLS] | 151 and 151.4 | 155.7 | 114 and 114.4 | 0% | 0% | 486 | significantly increased | not seen |  |  | uptake of carboxyfluorescein peptide 353 on coincubation (DU-145 cells [1]; 300 nM 353 with 300 nM carboxydansyl peptide 365 or 366, 1 hr (FIG. 1D)): nearly unaltered uptake; Geometric MFI (DU-145 cells [1]; 3 μM peptide, 1 hr (FIG. 1B)): 1500-2000; Geometric MFI (LNCaP cells [2]): 1500-2000; accumulation in the nuclei (DU-145 cells [3]): accumulated in the nuclei; accumulation in the nuclei (LNCaP cells [4]): accumulated in the nuclei
3 | C[C@H](NC(=O)[C@H](C)NC(=O)[C@H](Cc1ccccc1)NC(=O)[C@H](Cc1ccccc1)NC(=O)[C@@H](N)Cc1ccccc1)C(=O)NCC(=O)N[C@@H](CCCNC(=N)N)C(=O)N[C@@H](CCCCN)C(=O)N[C@@H](CCCNC(=N)N)C(=O)N[C@@H](CCCCN)C(=O)N[C@@H](CCCCN)C(=O)N[C@@H](CCCNC(=N)N)C(=O)N[C@H](C(=O)N[C@@H](CCCCNC(=O)c1ccc2c(c1)C(=O)OC21c2ccc(O)cc2Oc2cc(O)ccc21)C(=O)O)[C@@H](C)O [Peptide 361, FFFAAGRKRKKRT-FITC] (H-FFFAAGRKRKKRTK(5FAM)-OH) |  |  |  |  |  |  |  | significant cell death |  |  | Geometric MFI (DU-145 cells [1]; [13]): ~100; viability at 1 h, 3 µM [6]: < 50%
4 | EEEAAGRKRKKRT-TATGATCTCCTCCGT-K-FITC (all peptide nucleic acid (PNA), 5' {P353}, 3' {Lys-FITC}) [Peptide 353-PNA] |  |  |  |  |  |  |  |  |  |  | MFI of the cells with increasing concentration (DU-145 cells [1]; 0, 300, and 1000 nM, 18 hr (FIG. 4)): increased the MFI; MFI of small but highly fluorescent population of cells (DU-145 cells [1]; 300 nM, 18 hr (FIG. 4)): greater than 10^3
5 | EEE-FITC [Peptide 350] | 25.6 | 26.4 | 29.7 | 0% | 0% |  | lowest values |  | 0% | no effect | 
6 | EEEAAKKK-FITC (EEEAAKKK-{FITC′}) [Peptide 352] | 58.6 | 61.8 | 47.4 | 0% | 0% | 186 | significantly increased |  | 19.1% | no effect | 
7 | NNNAAGRKRKKRT-K-dansyl (NNNAAGRKRKKRTK-dansyl) [Peptide 366] |  |  |  |  |  |  |  |  |  |  | uptake of carboxydansyl peptide on coincubation with peptide 353 (DU-145 cells [1]): without concomitant uptake
8 | EEEAA-FITC (not fully specified; carboxyfluorescein label; Synthetically produced Glu peptide (Peptide 351)) | 43.8 | 56.9 | 48.4 | 0% | 0% |  | lowest values |  | 0% | no effect | accumulation in the cells when the plasma membrane was excluded (DU-145 cells [7]): much less accumulation; nuclei positive for DRAQ5 and FITC colocalization (DU-145 cells [7]): ~10%; accumulation in the cells when the plasma membrane was excluded (LNCaP cells [8]): much less accumulation; nuclei positive for DRAQ5 and FITC colocalization (LNCaP cells [8]): ~10%
9 | GRKRKKRT-FITC (GRKRKKRT-{FITC′}) [Peptide 356] | 417.6 | 293 | 181 | 0% | 29.8% | 325 | not nearly as great as that of peptide 353 |  |  |  | 
10 | C[C@H](NC(=O)[C@H](C)NC(=O)[C@H](CC(N)=O)NC(=O)[C@H](CC(N)=O)NC(=O)[C@@H](N)CC(N)=O)C(=O)NCC(=O)N[C@@H](CCCNC(=N)N)C(=O)N[C@@H](CCCCN)C(=O)N[C@@H](CCCNC(=N)N)C(=O)N[C@@H](CCCCN)C(=O)N[C@@H](CCCCN)C(=O)N[C@@H](CCCNC(=N)N)C(=O)N[C@H](C(=O)N[C@@H](CCCCNC(=O)c1ccc2c(c1)C(=O)OC21c2ccc(O)cc2Oc2cc(O)ccc21)C(=O)O)[C@@H](C)O [Peptide 362, NNNAAGRKRKKRT-FITC] (H-NNNAAGRKRKKRTK(5FAM)-OH) |  |  |  |  |  |  |  | not seen |  |  | Geometric MFI (DU-145 cells [1]; [13]): ~100; viability at 1 h, 3 µM [6]: < 50%
